Laboratory results as given in patent publication US7745390B2, “Antimicrobial peptides” (priority 2005, dated 2010).
Square brackets hold non-standard residues; d marks the D form. Ends that are not written are not given here. Peptide text beside a SMILES is read from it.

Columns and labels:
[1] = system: B. cereus; format: cell-based; details: pH 7.2
Description: (§1) The experiments described above characterizing the activity of granulysin peptides G1-G18 relied on counting bacterial colonies on plates. This assay is quite labor intensive and would not allow evaluation of many different compounds on a number of different microbes. Therefore, we optimized an assay in which the entire procedure could be completed in a single microtiter well. Briefly, peptides are diluted in 10 mM phosphate buffer, pH 7.2 supplemented with 0.03% LB (J. Sambrook, D. W. Russell, Molecular Cloning: A Laboratory Manual (Cold Spring Harbor Laboratory Press, New York, ed. 3, 2001) pg. A2.2, Retrieved from http://openwetware.org/wiki/LB) and 25 μl is added to microtiter wells. Bacteria (25 μl) are added (˜5×10^6 colony forming units/ml) in the same buffer. After a 3-hour incubation at 37° C., 150 μl of LB is added and the plates are incubated overnight. The OD at 600 nm is read on an ELISA plate reader. The minimum inhibitory concentration (MIC) is the lowest concentration allowing no bacterial growth. The IC50 is the concentration of peptide that results in 50% growth compared to the medium.
(§2) We now describe additional peptides and their activity. The peptides have been designed, synthesized, and have been tested for lysis of E. coli and S. typhimurium (gram negative bacteria), B. cereus (gram positive bacterium). Results are shown in Table 2 along with the amino acid sequence of the peptide. Changes from the naturally occurring sequence are underlined. In general, the desired result is lysis of bacteria at low concentration (<1 μM).
(§3) In Table 2, Columns 2-7 are the MIC and IC50 (concentration required for 50% inhibition of growth) for each organism (E. coli, Salmonella, and B. cereus). The MIC (minimum inhibitory concentration) was determined as described above, in a multiwell plate assay. […] L-isomer amino acids are designated by capital letters while D-isomer amino acids are designated by lower case letters.

[2] = system: E. coli DH5a; format: cell-based; details: DH5a, pH 7.2
Description: as §1, §2, §3

[3] = system: Salmonella; format: cell-based, S. typhimurium; details: pH 7.2
Description: as §1, §2, §3

Compound | B. cereus MIC [1] [µM] | IC50 [1] [nM] | E. coli DH5a MIC [2] [µM] | IC50 [2] [nM] | IC50 [3] [nM] | Salmonella MIC [3] [µM]
CC[C@H](C)[C@H](NC(=O)[C@@H](NC(=O)[C@@H](CCCNC(=N)N)NC(=O)[C@H](CO)NC(=O)[C@H](CCC(N)=O)NC(=O)[C@@H](CCCNC(=N)N)NC(=O)[C@@H](CCCNC(=N)N)NC(=O)[C@H](CCSC)NC(=O)[C@H](Cc1ccccc1)NC(=O)[C@@H](CCCNC(=N)N)NC(=O)[C@H](CCCNC(=N)N)NC(=O)[C@H](C)NC(=O)[C@H](NC(=O)[C@H](CC(=O)O)NC(=O)[C@@H](N)CCCNC(=N)N)C(C)C)C(C)C)C(=O)N[C@@H](CO)C(=O)N[C@H](CCCNC(=N)N)C(=O)N[C@@H](CC(C)C)C(=O)N[C@H](C(=O)O)C(C)C [Peptide G12.16, RDvARrFMrrQSrVISrLV] (H-RD[dV]AR[dR]FM[dR][dR]QS[dR]VIS[dR]LV-OH; N-terminus and C-terminus assumed) | 5.6 | 3510 | 1.39 | 720 | 1000 | 2.8
CC[C@H](C)[C@H](NC(=O)[C@H](NC(=O)[C@H](CCCNC(=N)N)NC(=O)[C@H](CO)NC(=O)[C@H](CCC(N)=O)NC(=O)[C@@H](CCCNC(=N)N)NC(=O)[C@@H](CCCNC(=N)N)NC(=O)[C@H](CCSC)NC(=O)[C@H](Cc1ccccc1)NC(=O)[C@@H](CCCNC(=N)N)NC(=O)[C@H](CCCNC(=N)N)NC(=O)[C@@H](C)NC(=O)[C@@H](NC(=O)[C@H](CC(=O)O)NC(=O)[C@@H](N)CCCNC(=N)N)C(C)C)C(C)C)C(=O)N[C@@H](CO)C(=O)N[C@@H](CCCNC(=N)N)C(=O)N[C@H](CC(C)C)C(=O)N[C@H](C(=O)O)C(C)C [Peptide G12.17, RDVaRrFMrrQSRvISRlV] (H-RDV[dA]R[dR]FM[dR][dR]QSR[dV]ISR[dL]V-OH; N-terminus and C-terminus assumed) | 2.8 | 1750 | 3.3 | 890 | 1600 | 2.8
CC[C@@H](C)[C@@H](NC(=O)[C@@H](NC(=O)[C@H](CCCNC(=N)N)NC(=O)[C@@H](CO)NC(=O)[C@H](CCC(N)=O)NC(=O)[C@@H](CCCNC(=N)N)NC(=O)[C@@H](CCCNC(=N)N)NC(=O)[C@H](CCSC)NC(=O)[C@H](Cc1ccccc1)NC(=O)[C@H](CCCNC(=N)N)NC(=O)[C@H](CCCNC(=N)N)NC(=O)[C@@H](C)NC(=O)[C@@H](NC(=O)[C@H](CC(=O)O)NC(=O)[C@@H](N)CCCNC(=N)N)C(C)C)C(C)C)C(=O)N[C@@H](CO)C(=O)N[C@@H](CCCNC(=N)N)C(=O)N[C@@H](CC(C)C)C(=O)N[C@H](C(=O)O)C(C)C [Peptide G12.18, RDVaRRFMrrQsRViSRLV] (H-RDV[dA]RRFM[dR][dR]Q[dS]RV[dI]SRLV-OH; N-terminus and C-terminus assumed) | 5.6 | 3510 | 2.9 | 1000 | 1610 | 2.8
CSCC[C@@H](NC(=O)[C@H]1CCCN1C(=O)[C@@H](CCCCN)NC(=O)[C@@H](CCCCN)NC(=O)[C@@H](CO)NC(=O)[C@H](NC(=O)[C@@H](CCCCN)NC(=O)[C@@H](CCCCN)NC(=O)[C@@H](CCCCN)NC(=O)[C@@H](CCCCN)NC(=O)[C@@H](CCCCN)NC(=O)[C@@H](CCCCN)NC(=O)[C@H](N)CCCCN)C(C)C)C(=O)N[C@H](CCCCN)C(=O)N[C@H](CCCCN)C(=O)N[C@H](Cc1ccc(O)cc1)C(=O)N[C@H](CCCCN)C(=O)N[C@H](CO)C(=O)N[C@H](CCCCN)C(=O)N[C@H](CCCCN)C(=O)N1CCC[C@@H]1C(=O)N[C@H](CCCCN)C(=O)N[C@H](CCCCN)C(=O)N[C@H](CC(C)C)C(=O)N[C@@H](C(=O)O)C(C)C [Peptide G12.29, kkkkkkkvskkpmkkykskkpkklv] (H-[dK][dK][dK][dK][dK][dK][dK][dV][dS][dK][dK][dP][dM][dK][dK][dY][dK][dS][dK][dK][dP][dK][dK][dL][dV]-OH; N-terminus and C-terminus assumed) | 0.35 | 210 | 0.15 | 100 | 280 | 1.15
CC(C)[C@H](NC(=O)[C@H](CO)NC(=O)[C@H](CCCNC(=N)N)NC(=O)[C@@H](N)CCC(N)=O)C(=O)N[C@@H](CO)C(=O)N[C@@H](CCCNC(=N)N)C(=O)N[C@H](C)C(=O)N[C@H](C)C(=O)N[C@H](C(=O)N[C@@H](CCCNC(=N)N)C(=O)N[C@H](C(=O)N[C@@H](CO)C(=O)N[C@@H](CCCNC(=N)N)C(=O)N[C@H](C(=O)NCC(=O)N[C@@H](CCCNC(=N)N)C(=O)N[C@@H](CO)C(=O)N[C@@H](CCCNC(=N)N)C(=O)N[C@@H](Cc1c[nH]c2ccccc12)C(=O)O)[C@@H](C)O)C(C)C)[C@@H](C)O [Peptide G13.7, QRSVSRaaTRVSRTGRSRW] (H-QRSVSR[dA][dA]TRVSRTGRSRW-OH; N-terminus and C-terminus assumed) | >10 | 7700 | 5.7 | 2850 | > 10000 | >10
CSCC[C@H](NC(=O)[C@H](Cc1ccccc1)NC(=O)[C@H](CCCNC(=N)N)NC(=O)[C@H](CCCNC(=N)N)NC(=O)[C@H](CO)NC(=O)[C@@H](NC(=O)[C@@H](CC(=O)O)NC(=O)[C@@H](CCCNC(=N)N)NC(=O)[C@H](Cc1c[nH]c2ccccc12)NC(=O)[C@H](CCCNC(=N)N)NC(=O)[C@H](CO)NC(=O)[C@H](CCCNC(=N)N)NC(=O)CN)C(C)C)C(=O)N[C@@H](CCCNC(=N)N)C(=O)N[C@@H](CCCNC(=N)N)C(=O)O [Peptide G14.10, GRSRWrdVSRRFMRR] (H-GRSRW[dR][dD]VSRRFMRR-OH; N-terminus and C-terminus assumed) | 2.8 | 1750 | 1.25 | 450 | 890 | 1.4
FDTPRRVSRRFMRRLGH [Peptide G11.43, FDTPRRVSRRFMRRLGH] | 0.75 | 210 | 0.75 | 420 | 3000 | >10
GRARWRDVARRFMRR [Peptide G14.9, GRARWRDVARRFMRR] | 1.37 | 850 | 1.38 | 810 | 440 | 0.65
GRSGWRDVSRNFRRG [Peptide G14.12, GRSGWRDVSRNFRRG] | >10 | > 10000 | >10 | 6750 | > 10000 | >10
GRSLWRDVSRNFMRR [Peptide G14.13, GRSLWRDVSRNFMRR] | >10 | > 10000 | 5.6 | 1850 | 7600 | >10
GRSRWRDVSRNFMRR [Peptide G14.1, GRSRWRDVSRNFMRR] | >10 | 7660 | 1.37 | 890 | 1750 | 2.8
GRSRWRDVSRRFMRR [Peptide G14.2, GRSRWRDVSRRFMRR] | 2.8 | 1750 | 1.45 | 850 | 860 | 1.4
GSRRWRDVSRRFMRR [Peptide G14.14, GSRRWRDVSRRFMRR] | 0.35 | 210 | 0.17 | 110 | 210 | 0.7
